According to ChEMBL document CHEMBL3621196, “Quinazolinedione SIRT6 inhibitors sensitize cancer cells to chemotherapeutics” (Eur J Med Chem, 2015):
pIC50: −log10 of the molar value. Blank lines part the entries; values can stand above or below the molecule they belong to. The source made the active and inactive calls. No cut-off for these calls is given here.

Tests used:
[1] = target: T1, NAD-dependent protein deacylase sirtuin-6 (Homo sapiens, UniProt Q8N6T7); assay: Inhibition of human SIRT6 deacetylase activity using Arg-His-Lys-Lys(AC)-AMC as a substrate by fluorescence assay
[2] = target: T1, NAD-dependent protein deacylase sirtuin-6; assay: Inhibition of human recombinant SIRT6 deacetylase activity using Arg-His-Lys-Lys(AC)-AMC as a substrate by […] assay
CAPAN-1 [3] = assay: Induction of DNA damage in human BRCA2-deficient Capan1 cells assessed as increase in gammaH2AX levels at 8 uM after 24 hrs by flow cytometry analysis; format: functional, cell-based
CAPAN-1 [4] = assay: Induction of DNA damage in human BRCA2-deficient Capan1 cells assessed as increase in gammaH2AX levels at 8 uM after 24 hrs by confocal microscopy; format: functional, cell-based
[5] = target: T1, NAD-dependent protein deacylase sirtuin-6; assay: Inhibition of SIRT6 in human PBMC assessed as inhibition of PHA-induced TNF alpha production at 100 uM after 3 days by ELISA
[6] = target: T1, NAD-dependent protein deacylase sirtuin-6; assay: Inhibition of SIRT6 in human BxPC-3 cells assessed as increase in H3K9 acetylation by immunoblotting assay relative to control; format: cell-based
Homo sapiens [7] = species on record: Homo sapiens; assay: Selectivity ratio of IC50 for human SIRT1 to IC50 for human SIRT6
[8] = target: T1, NAD-dependent protein deacylase sirtuin-6; assay: Inhibition of human SIRT6 in […] Capan1 cells assessed as potentiation of NU1025-induced cytotoxicity by measuring cell viability at 100 uM after 7 days by CellTiter96 Aqueous1 assay; format: cell-based; conditions: CAPAN-1
[9] = Cytotoxicity against human HEK293 cells assessed as cell viability using propidium iodide by flow cytometry; format: cell-based; conditions: read-out: Activity
[10] = target: Protein Sirt6 (Rattus norvegicus) (UniProt A6K863); assay: Inhibition of SIRT6 in rat L6 cells assessed as increase in radiolabelled glucose uptake at 100 uM after 18 hrs by fluorescence plate reader relative to control; format: cell-based
[11] = target: Protein Sirt6 (Rattus norvegicus) (UniProt A6K863); assay: Inhibition of SIRT6 in rat L6 cells assessed as increase in 2-NBDG uptake at 100 uM after 18 hrs by fluorescence plate reader relative to control; format: cell-based
[12] = target: T1, NAD-dependent protein deacylase sirtuin-6; assay: Inhibition of SIRT6 in human BxPC3 cells assessed as reduction in TNF alpha production by ELISA; format: cell-based; conditions: BXPC-3, concentration not given here
[13] = target: T2, NAD-dependent protein deacetylase sirtuin-2 (Homo sapiens, UniProt Q8IXJ6); assay: Inhibition of human SIRT2 deacetylase activity using Arg-His-Lys-Lys(AC)-AMC as a substrate by fluorescence assay
T2 sequence (Q8IXJ6 whole entry): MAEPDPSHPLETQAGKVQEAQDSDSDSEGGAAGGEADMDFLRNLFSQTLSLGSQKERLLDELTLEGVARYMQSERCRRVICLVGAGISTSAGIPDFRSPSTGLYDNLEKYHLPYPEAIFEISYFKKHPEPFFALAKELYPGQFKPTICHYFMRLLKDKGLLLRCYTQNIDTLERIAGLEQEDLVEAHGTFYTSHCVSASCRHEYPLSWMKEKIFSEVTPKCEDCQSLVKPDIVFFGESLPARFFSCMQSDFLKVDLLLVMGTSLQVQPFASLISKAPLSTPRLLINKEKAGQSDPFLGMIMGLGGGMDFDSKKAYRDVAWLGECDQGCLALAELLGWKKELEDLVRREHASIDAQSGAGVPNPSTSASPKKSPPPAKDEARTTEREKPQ

[14] = target: T1, NAD-dependent protein deacylase sirtuin-6; assay: Inhibition of SIRT6 in human BxPC-3 cells assessed as increase in radiolabelled glucose uptake at 100 uM after 18 hrs by fluorescence plate reader relative to control; format: cell-based
[15] = target: T1, NAD-dependent protein deacylase sirtuin-6; assay: Inhibition of SIRT6 in human BxPC3 cells assessed as potentiation of gemcitabine-induced cytotoxicity by measuring cell viability at 30 uM by CellTiter96 Aqueous1 assay; format: cell-based; conditions: BXPC-3
[16] = target: T3, NAD-dependent protein deacetylase sirtuin-1 (Homo sapiens, UniProt Q96EB6); assay: Inhibition of human SIRT1 deacetylase activity using Arg-His-Lys-Lys(AC)-AMC as a substrate by fluorescence assay
T3 sequence (Q96EB6 whole entry): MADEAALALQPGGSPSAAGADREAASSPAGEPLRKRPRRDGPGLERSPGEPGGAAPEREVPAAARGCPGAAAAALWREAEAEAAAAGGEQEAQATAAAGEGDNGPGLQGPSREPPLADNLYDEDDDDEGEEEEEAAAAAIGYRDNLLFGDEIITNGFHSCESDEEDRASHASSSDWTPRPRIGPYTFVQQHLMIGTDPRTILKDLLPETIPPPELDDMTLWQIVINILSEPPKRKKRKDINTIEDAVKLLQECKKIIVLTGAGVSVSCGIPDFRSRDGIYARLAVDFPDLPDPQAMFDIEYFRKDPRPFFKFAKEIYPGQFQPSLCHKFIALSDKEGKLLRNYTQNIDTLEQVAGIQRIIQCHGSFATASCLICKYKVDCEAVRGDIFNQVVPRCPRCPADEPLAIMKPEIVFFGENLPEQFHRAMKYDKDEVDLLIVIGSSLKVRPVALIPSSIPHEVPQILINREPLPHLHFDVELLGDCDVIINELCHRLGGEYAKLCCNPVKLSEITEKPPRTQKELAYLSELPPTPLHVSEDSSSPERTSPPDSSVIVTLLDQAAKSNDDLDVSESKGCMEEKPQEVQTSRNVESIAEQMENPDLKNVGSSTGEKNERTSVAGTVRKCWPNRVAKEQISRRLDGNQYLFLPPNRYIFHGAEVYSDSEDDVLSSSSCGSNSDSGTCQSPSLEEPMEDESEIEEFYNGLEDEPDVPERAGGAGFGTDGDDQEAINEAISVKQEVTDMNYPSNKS

[17] = Cytotoxicity against human BxPC3 cells assessed as cell viability at 30 uM after 72 hrs by CellTiter96 Aqueous1 assay; format: cell-based, BXPC-3; conditions: bxpc-3, 72 h, 30 µM
Homo sapiens [18] = species on record: Homo sapiens; assay: Selectivity ratio of IC50 for human SIRT2 to IC50 for human SIRT6
[19] = target: T1, NAD-dependent protein deacylase sirtuin-6; assay: Inhibition of SIRT6 in human PBMC assessed as inhibition of MLR-induced TNF alpha production at 100 uM after 3 days by ELISA

T1 sequence (Q8N6T7 whole entry): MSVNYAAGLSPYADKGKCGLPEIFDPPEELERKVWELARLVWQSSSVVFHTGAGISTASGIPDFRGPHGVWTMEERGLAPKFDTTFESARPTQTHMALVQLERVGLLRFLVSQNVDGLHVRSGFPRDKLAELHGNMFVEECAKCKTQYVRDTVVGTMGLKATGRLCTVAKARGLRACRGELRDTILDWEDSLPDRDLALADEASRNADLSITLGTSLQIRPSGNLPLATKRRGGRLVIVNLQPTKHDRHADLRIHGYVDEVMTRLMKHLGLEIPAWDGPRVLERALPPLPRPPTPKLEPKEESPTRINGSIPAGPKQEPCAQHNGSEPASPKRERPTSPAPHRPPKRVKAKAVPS
Protein Sirt6 (Rattus norvegicus), sequence (A6K863 as listed by the source): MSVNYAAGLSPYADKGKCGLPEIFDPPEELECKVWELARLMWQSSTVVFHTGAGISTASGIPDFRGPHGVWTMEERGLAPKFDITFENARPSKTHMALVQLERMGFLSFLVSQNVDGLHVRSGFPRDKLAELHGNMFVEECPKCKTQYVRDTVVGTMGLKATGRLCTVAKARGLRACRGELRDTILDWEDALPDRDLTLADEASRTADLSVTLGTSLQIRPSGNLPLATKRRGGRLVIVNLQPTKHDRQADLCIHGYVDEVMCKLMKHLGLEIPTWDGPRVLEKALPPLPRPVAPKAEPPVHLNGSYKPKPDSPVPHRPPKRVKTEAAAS

SMILES: CC(=O)Nc1ccc(S(=O)(=O)Nc2ccc(Oc3cccnc3)cc2)cc1
pIC50 [1]: 3.53
pIC50 [2]: 3.62

SMILES: O=S(=O)(Nc1ccc(Oc2cccnc2)cc1)c1ccccc1
pIC50 [2]: 3.52

SMILES: O=C(c1cc(Cc2n[nH]c(=O)c3ccccc23)ccc1F)N1CCN(C(=O)C2CC2)CC1
Activity (CAPAN-1 [3]): Active
Activity (CAPAN-1 [4]): Active

SMILES: O=c1[nH]c(=O)c2cc(S(=O)(=O)Nc3ccc(Cn4ccnc4)cc3)ccc2[nH]1
inhibition [5]: 31%
fold increase in H3K9 acetylation [6]: 1.5 fold
pIC50 [1]: 4.22
Ratio IC50 (Homo sapiens [7]): 3.97
Activity [8]: Active
viability [9]: > 80%
fold increase in glucose uptake [10]: 0.8 fold
fold increase in 2-NBDG uptake [11]: 0.7 fold
inhibition [12]: 25%
pIC50 [13]: 3.80
fold increase in glucose uptake [14]: 0.6 fold
Activity [15]: Active
pIC50 [16]: 3.62
Activity [17]: Non-toxic
Ratio IC50 (Homo sapiens [18]): 2.65
inhibition [19]: 21%

SMILES: O=c1[nH]c(=O)c2cc(S(=O)(=O)NC3CCN(Cc4ccccc4)C3)ccc2[nH]1 (configuration not stated)
pIC50 [2]: 3.29

Further molecules by rising pIC50 [2], results first:

pIC50 [1]: 3.86
pIC50 [2]: 3.86
SMILES: O=c1[nH]c(=O)c2cc(S(=O)(=O)Nc3ccccc3-c3ccccc3)ccc2[nH]1

pIC50 [1]: 4.11
pIC50 [2]: 3.99
SMILES: Cn1c(=O)sc2cc(S(=O)(=O)Nc3ccc(Oc4cccnc4)cc3)ccc21

pIC50 [2]: 4.09
SMILES: Cn1ccc2cc(NS(=O)(=O)c3ccc4[nH]c(=O)[nH]c(=O)c4c3)ccc21
